Assay results taken from PubChem BioAssay (NCI).
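Dose response: 5 concentrations. Exposure: 48 h. Format: 96-well plates. Endpoint: linear interpolation; highest concentration if not reached. Here, GI50 denotes the concentration required for 50% inhibition of growth. TGI marks complete inhibition of growth.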

Tests used:
Test in all cases: inhibition of tumour cell growth, NCI panel, 48 h; in the data active = GI50 below about 0.43 µM; inactive = the rest
SNB-19 CNS = test system: SNB-19 CNS
UACC-257 melanoma = test system: UACC-257 melanoma
PC-3 prostate = test system: PC-3 prostate
CCRF-CEM leukemia = test system: CCRF-CEM leukemia
HOP-62 NSCLC = test system: HOP-62 NSCLC
HT29 colon = test system: HT29 colon
HS 578T breast = test system: HS 578T breast
MCF7 breast = test system: MCF7 breast
SK-MEL-28 melanoma = test system: SK-MEL-28 melanoma
SW-620 colon = test system: SW-620 colon
M14 melanoma = test system: M14 melanoma
HCT-15 colon = test system: HCT-15 colon
NCI-H23 lung = test system: NCI-H23 lung
IGROV1 ovarian = test system: IGROV1 ovarian
MDA-MB-231 breast = test system: MDA-MB-231 breast
SF-268 CNS = test system: SF-268 CNS
OVCAR-8 ovarian = test system: OVCAR-8 ovarian
UACC-62 melanoma = test system: UACC-62 melanoma
RXF 393 renal = test system: RXF 393 renal
TK-10 renal = test system: TK-10 renal
SN12C renal = test system: SN12C renal
HCT-116 colon = test system: HCT-116 colon
SK-OV-3 ovarian = test system: SK-OV-3 ovarian
NCI-H226 lung = test system: NCI-H226 lung
DU-145 prostate = test system: DU-145 prostate
RPMI-8226 leukemia = test system: RPMI-8226 leukemia
A549 NSCLC = test system: A549 NSCLC
786-0 renal = test system: 786-0 renal
A498 renal = test system: A498 renal
COLO 205 colon = test system: COLO 205 colon
HL-60(TB) leukemia = test system: HL-60(TB) leukemia
ACHN renal = test system: ACHN renal
OVCAR-4 ovarian = test system: OVCAR-4 ovarian
NCI-H460 lung = test system: NCI-H460 lung
EKVX NSCLC = test system: EKVX NSCLC
CAKI-1 renal = test system: CAKI-1 renal
OVCAR-3 ovarian = test system: OVCAR-3 ovarian
T-47D breast = test system: T-47D breast
MALME-3M melanoma = test system: MALME-3M melanoma
BT-549 breast = test system: BT-549 breast
SK-MEL-5 melanoma = test system: SK-MEL-5 melanoma
U251 CNS = test system: U251 CNS
LOX IMVI melanoma = test system: LOX IMVI melanoma
NCI-H522 lung = test system: NCI-H522 lung
NCI/ADR-RES ovarian = test system: NCI/ADR-RES ovarian
UO-31 renal = test system: UO-31 renal
SF-539 CNS = test system: SF-539 CNS
SF-295 CNS = test system: SF-295 CNS
K-562 leukemia = test system: K-562 leukemia
OVCAR-5 ovarian = test system: OVCAR-5 ovarian
HCC-2998 colon = test system: HCC-2998 colon
HOP-92 NSCLC = test system: HOP-92 NSCLC
KM12 colon = test system: KM12 colon
MOLT-4 leukemia = test system: MOLT-4 leukemia
MDA-MB-435 = test system: MDA-MB-435
SK-MEL-2 melanoma = test system: SK-MEL-2 melanoma
SNB-75 CNS = test system: SNB-75 CNS

COc1ccc(/C=C/c2cc(OC)c(OC)c(OC)c2)cc1NC(=O)/C=C/c1ccc(F)cc1
5.73 µM: TGI (NCI-H522 lung)
6.23 µM: TGI (OVCAR-3 ovarian)
7.47 µM: TGI (HL-60(TB) leukemia)
89 µM: TGI (NCI-H226 lung)
inactive: GI50 (SNB-19 CNS) 4.37 µM | GI50 (UACC-257 melanoma) 3.02 µM | GI50 (PC-3 prostate) 1.98 µM | GI50 (CCRF-CEM leukemia) 2.99 µM | GI50 (HOP-62 NSCLC) 3.84 µM | GI50 (HT29 colon) 2.34 µM | GI50 (HS 578T breast) 3.79 µM | GI50 (MCF7 breast) 3.34 µM | GI50 (SK-MEL-28 melanoma) 5.04 µM | GI50 (SW-620 colon) 2.85 µM | GI50 (M14 melanoma) 2.81 µM | GI50 (HCT-15 colon) 4 µM | GI50 (NCI-H23 lung) 3.41 µM | GI50 (IGROV1 ovarian) 5.71 µM | GI50 (MDA-MB-231 breast) 5.8 µM | GI50 (SF-268 CNS) 7.7 µM | GI50 (OVCAR-8 ovarian) 3.37 µM | GI50 (UACC-62 melanoma) 3.32 µM | GI50 (RXF 393 renal) 1.41 µM | GI50 (TK-10 renal) 4.73 µM | GI50 (SN12C renal) 5.56 µM | GI50 (HCT-116 colon) 3.98 µM | GI50 (NCI-H226 lung) 3.82 µM | GI50 (DU-145 prostate) 4.05 µM | GI50 (RPMI-8226 leukemia) 2.1 µM | GI50 (A549 NSCLC) 3.41 µM | GI50 (786-0 renal) 4.29 µM | GI50 (COLO 205 colon) 2.43 µM | GI50 (HL-60(TB) leukemia) 1.8 µM | GI50 (ACHN renal) 6.3 µM | GI50 (OVCAR-4 ovarian) 5.95 µM | GI50 (NCI-H460 lung) 3.09 µM | GI50 (EKVX NSCLC) 7.4 µM | GI50 (CAKI-1 renal) 2.11 µM | GI50 (OVCAR-3 ovarian) 2.43 µM | GI50 (T-47D breast) 5.51 µM | GI50 (MALME-3M melanoma) 3.87 µM | GI50 (BT-549 breast) 4.49 µM | GI50 (SK-MEL-5 melanoma) 2.72 µM | GI50 (U251 CNS) 3.17 µM | GI50 (LOX IMVI melanoma) 6.15 µM | GI50 (NCI-H522 lung) 1.87 µM | GI50 (NCI/ADR-RES ovarian) 1.19 µM | GI50 (UO-31 renal) 2.3 µM | GI50 (SF-539 CNS) 2.88 µM | GI50 (SF-295 CNS) 1.57 µM | GI50 (K-562 leukemia) 1.44 µM | GI50 (OVCAR-5 ovarian) 5.97 µM | GI50 (HCC-2998 colon) 1.94 µM | GI50 (HOP-92 NSCLC) 4.36 µM | GI50 (KM12 colon) 2.96 µM | GI50 (MOLT-4 leukemia) 4.48 µM
0.782 µM: TGI (SK-OV-3 ovarian)
6.71 µM: TGI (COLO 205 colon)
> 40.5 µM: TGI (DU-145 prostate)
active: GI50 (SK-OV-3 ovarian) 0.0441 µM | GI50 (A498 renal) 0.0352 µM
> 28.2 µM: TGI (HCC-2998 colon)
13.5 µM: TGI (HT29 colon)
> 100 µM: TGI (SNB-19 CNS) | TGI (UACC-257 melanoma) | TGI (PC-3 prostate) | TGI (HOP-62 NSCLC) | TGI (HS 578T breast) | TGI (MCF7 breast) | TGI (SK-MEL-28 melanoma) | TGI (SW-620 colon) | TGI (M14 melanoma) | TGI (HCT-15 colon) | TGI (NCI-H23 lung) | TGI (IGROV1 ovarian) | TGI (MDA-MB-231 breast) | TGI (SF-268 CNS) | TGI (OVCAR-8 ovarian) | TGI (UACC-62 melanoma) | TGI (TK-10 renal) | TGI (SN12C renal) | TGI (HCT-116 colon) | TGI (RPMI-8226 leukemia) | TGI (A549 NSCLC) | TGI (786-0 renal) | TGI (ACHN renal) | TGI (OVCAR-4 ovarian) | TGI (NCI-H460 lung) | TGI (EKVX NSCLC) | TGI (CAKI-1 renal) | TGI (T-47D breast) | TGI (MALME-3M melanoma) | TGI (BT-549 breast) | TGI (SK-MEL-5 melanoma) | TGI (U251 CNS) | TGI (LOX IMVI melanoma) | TGI (UO-31 renal) | TGI (K-562 leukemia) | TGI (OVCAR-5 ovarian) | TGI (HOP-92 NSCLC) | TGI (KM12 colon) | TGI (MOLT-4 leukemia)
4.88 µM: TGI (RXF 393 renal)
64.4 µM: TGI (SF-295 CNS)
> 31.1 µM: TGI (CCRF-CEM leukemia)
6.38 µM: TGI (NCI/ADR-RES ovarian)
7.86 µM: TGI (SF-539 CNS)

CC1=CC[C@@H]2CC[C@]3(C)[C@H](CC[C@@H]4[C@@]5(C)CCCNC(C)(C)[C@@H]5CC[C@]43C)[C@H]2[C@@H]1C
3.71 µM: TGI (SF-268 CNS)
3.1 µM: TGI (RXF 393 renal)
3.5 µM: TGI (SK-OV-3 ovarian) | TGI (HL-60(TB) leukemia)
3.55 µM: TGI (DU-145 prostate)
3.42 µM: TGI (SF-295 CNS)
3.26 µM: TGI (M14 melanoma)
3.28 µM: TGI (MDA-MB-435)
inactive: GI50 (UACC-257 melanoma) 1.86 µM | GI50 (PC-3 prostate) 1.58 µM | GI50 (HS 578T breast) 1.79 µM | GI50 (SK-MEL-28 melanoma) 1.81 µM | GI50 (M14 melanoma) 1.73 µM | GI50 (NCI-H23 lung) 1.78 µM | GI50 (MDA-MB-231 breast) 1.8 µM | GI50 (SF-268 CNS) 1.97 µM | GI50 (UACC-62 melanoma) 1.77 µM | GI50 (RXF 393 renal) 1.61 µM | GI50 (TK-10 renal) 1.81 µM | GI50 (SN12C renal) 1.83 µM | GI50 (SK-OV-3 ovarian) 1.89 µM | GI50 (DU-145 prostate) 1.98 µM | GI50 (MDA-MB-435) 1.85 µM | GI50 (A498 renal) 1.87 µM | GI50 (SK-MEL-2 melanoma) 1.81 µM | GI50 (HL-60(TB) leukemia) 1.7 µM | GI50 (ACHN renal) 1.76 µM | GI50 (NCI-H460 lung) 1.48 µM | GI50 (EKVX NSCLC) 1.74 µM | GI50 (CAKI-1 renal) 1.69 µM | GI50 (OVCAR-3 ovarian) 1.91 µM | GI50 (MALME-3M melanoma) 1.77 µM | GI50 (BT-549 breast) 1.66 µM | GI50 (SK-MEL-5 melanoma) 1.7 µM | GI50 (LOX IMVI melanoma) 1.66 µM | GI50 (SNB-75 CNS) 1.98 µM | GI50 (NCI/ADR-RES ovarian) 1.84 µM | GI50 (UO-31 renal) 1.47 µM | GI50 (SF-539 CNS) 1.69 µM | GI50 (SF-295 CNS) 1.87 µM | GI50 (OVCAR-5 ovarian) 1.67 µM | GI50 (HOP-92 NSCLC) 1.39 µM
2.77 µM: TGI (HOP-92 NSCLC)
3.37 µM: TGI (NCI-H23 lung) | TGI (TK-10 renal) | TGI (OVCAR-3 ovarian)
3.01 µM: TGI (LOX IMVI melanoma)
3.22 µM: TGI (UACC-62 melanoma)
3.38 µM: TGI (EKVX NSCLC)
2.82 µM: TGI (UO-31 renal)
3.44 µM: TGI (SN12C renal)
3.09 µM: TGI (NCI-H460 lung)
3.63 µM: TGI (UACC-257 melanoma)
3.84 µM: TGI (SNB-75 CNS)
4.04 µM: TGI (HS 578T breast)
3.32 µM: TGI (SK-MEL-28 melanoma)
3.47 µM: TGI (MDA-MB-231 breast)
3.14 µM: TGI (ACHN renal) | TGI (BT-549 breast)
3.08 µM: TGI (SK-MEL-5 melanoma)
3.07 µM: TGI (OVCAR-5 ovarian)
3.6 µM: TGI (A498 renal)
3.02 µM: TGI (PC-3 prostate)
3.52 µM: TGI (NCI/ADR-RES ovarian)
3.48 µM: TGI (SK-MEL-2 melanoma) | TGI (MALME-3M melanoma)
3.05 µM: TGI (CAKI-1 renal)
3.13 µM: TGI (SF-539 CNS)
